From article PMC12040169 (PLOS Biology, 2025)

Assay: in vitro
Settings: human, hela cells, % viability

Structure (SMILES)	viability at 28.5 h, 10 µM
Cn1nc(C(=O)NCc2ccccc2)cc1C(=O)NCc1ccccc1 [CBK270004]	92%
c1ccc(C(Oc2nccnc2-c2ccsc2)c2ccccc2)cc1 [CBK106765]	103%
CC(c1ccc(Cl)cc1)N(CCN(C)C)c1ccccn1 (centres unmarked) [CBK012273F]	100%
Cc1nn(C)c(Cl)c1S(=O)(=O)NCc1ccc(C(F)(F)F)c(F)c1 [CBK062111]	93.8%
Cc1ccc(S(=O)(=O)Cc2ccc(C(=O)NCc3ccco3)cc2)cc1 [CBK268630]	105%
Cc1nc(CN2C(=O)CC3(C2=O)C(=O)N(CCCCOc2ccccc2)c2ccccc23)cs1 (centres unmarked) [CBK076103]	102%
OCCOCCNc1ncnc2sc(-c3ccccc3)cc12 [CBK265951]	76%
COCOc1ccc(-c2nccnc2OCCN2C(=O)c3ccccc3C2=O)cc1 [CBK106913]	111%
O=C(Nc1ncccc1O)c1cnc2c(cnn2C2CCCC2)c1 [CBK305246]	99.9%
CC(=O)N[C@H]1CC[C@]2(C)CCC([C@H](C)C(=O)NC3CCCC3)[C@H](O)[C@H]2[C@@H]1C (some centres unmarked) [CBK289436]	79.6%
CC1CCCCC12NC(=O)N(Cc1nnc(-c3cccs3)o1)C2=O (centres unmarked) [CBK306205]	82.9%
CC(=O)Nc1ccc(CNC(=O)c2ccc[nH]2)cc1 [CBK304538]	87.1%
COc1ccc(CCNC(=O)N2CCCCC2CO)cc1 (centres unmarked) [CBK156188]	92.8%
Cc1cc(C)n2c(SCc3ccccc3)nnc2n1 [CBK025780]	82%
O=C1CCC(=O)N1Cc1cccc(-c2ccnc(NS(=O)(=O)c3ccc(Cl)cc3)n2)c1 [CBK067436]	86.3%
O=C(CCn1c(C(F)(F)F)cc2cccnc21)NCc1ccncc1 [CBK284841]	90.5%
FC(F)(F)c1cccc(CC2CSC(=S)N2)c1 (centres unmarked) [CBK022895]	92.2%
CN(C)C(=O)C1(Cc2ccccc2-c2ccccc2)CCN(C(=O)c2cccc(F)c2)CC1 [CBK285675]	111%
CCCC/C=C/c1cncc(NCCO)n1 [CBK065419]	109%
COC(=O)c1ccc2oc(-c3cc(C(O)CNC(C)(C)C)ccc3OC(C)C)cc(=O)c2c1 (centres unmarked) [CBK009944C]	85%
O=S(=O)(Nc1cccnc1)N1CCOCC1 [CBK269362]	97.9%
Cc1nc(CN2CCCN(C(=O)c3cccc(C#N)c3)CC2)cs1 [CBK305363]	83.6%

Structure (SMILES)	viability at 28.5 h, 10 µM
CC(C)CC1OC(NC2CCCCCC2)=NC1=O (centres unmarked) [CBK074901]	88.8%
CC(=O)N1CCC2(C/C=C/C[C@H]3CN(C(=O)Cc4cccc(F)c4)CC[C@H]3NC(=O)CNC2=O)CC1 [CBK292103]	93.6%
COCC(C)NS(=O)(=O)c1cc(C)ccc1OC (centres unmarked) [CBK270037]	85.6%
O=C(O)C(CCCN1CCCC1)(c1ccccc1)c1ccccc1 [CBK022695G]	81.7%
Cc1nn2c(N)ncnc2c1-c1ccc(Cl)cc1 [CBK287880]	68.8%
Oc1cccnc1SCc1nc2ccccc2s1 [CBK016367]	112%
OC1(c2cccnc2F)CCN(Cc2ccccc2F)CC1 [CBK284372]	91%
CC(CN(C)C(=O)CC1CCN(C(=O)CC2CCCCC2)CC1)c1ccccc1 (centres unmarked) [CBK286268]	97.9%
CCOc1ccccc1NC(=O)CN(C)S(=O)(=O)c1ccc2ccccc2c1 [CBK266874]	101%
Cc1cn(S(=O)(=O)c2ccc(Cl)cc2)cn1 [CBK026492]	113%
O=C1CCC(=O)N1CCOc1nccnc1OC1CCN(Cc2ccc([N+](=O)[O-])cc2)CC1 [CBK084343]	95.7%
CC(=O)Nc1cccc(CN2CCCC2CN2CCCC2CO)c1 (centres unmarked) [CBK305163]	98.9%
CCOC(=O)c1sc(NS(=O)(=O)c2ccc(-c3ccccc3)cc2)nc1C [CBK003784]	106%
O=C(CO)N1CC2(CCN(Cc3ccc(Cl)c(Cl)c3)CC2)c2ccccc21 [CBK131495]	89.5%
CC(=O)Nc1ccc(S(=O)(=O)Nc2ccc(-c3nc4cc(C(=O)c5ccccc5)ccc4[nH]3)cc2)cc1 [CBK267819]	99.2%
Cc1ccccc1OC(C)C(=O)Nc1ccc(S(=O)(=O)N2CCCC2)cc1 (centres unmarked) [CBK269367]	89.7%
Cc1ccccc1NC(=O)Nc1ccc(OCc2ccccc2)cc1 [CBK262861]	108%
N#Cc1cnc2c(-c3ccccc3)c(Cc3ccccc3)nn2c1N [CBK270191]	91.8%
Cc1ccc(OCC(=O)NNC(=O)c2ccco2)cc1 [CBK261800]	96.1%
O=C(Nc1ccccc1)N[C@H]1CO[C@H]2[C@@H]1OC[C@H]2OCc1ccccc1 [CBK289488]	109%
CCOc1cccc(-c2cn3ccnc3c(Nc3ccc(Cl)cc3)n2)c1 [CBK066505]	92.1%
CC(C)CCn1c(=S)[nH]c2c(oc3ccccc32)c1=O [CBK288504]	100%

Structure (SMILES)	viability at 28.5 h, 10 µM
CN1CCN(S(=O)(=O)c2ccc3c(c2)oc(=O)c2cc(S(=O)(=O)N4CCN(C)CC4)ccc23)CC1 [CBK267206]	85%
O=c1cc2nc(-c3ccccc3F)[nH]c(=S)n2[nH]1 [CBK288402]	95.5%
O=C(COc1ccccc1)N1CCC(Oc2nccnc2OCc2ccc(Cl)c(Cl)c2)CC1 [CBK160718]	99%
COCCN(Cc1ccccc1C)C(=O)C1CCc2nn(C)c(=O)n2C1 (centres unmarked) [CBK306934]	80.8%
Cc1cc(C)c2c(CC(=O)N(C)CCN(C)C)coc2c1 [CBK282174]	106%
CS(=O)(=O)Nc1ccc(C(=O)NCCN2CCOCC2)cc1 [CBK269781]	93.2%
CC(=O)Nc1cccc(-c2ccc(Nc3cccc(N(C)C)c3)nc2)c1 [CBK036829]	97.9%
CC1CCN(Cc2ccc(-c3cn(CC(=O)NCc4ccc(OC(F)(F)F)c(F)c4)nn3)cc2)CC1 [CBK167536]	87.3%
Cc1cc(Cl)c(S(=O)(=O)Nc2ccc(I)cc2)cc1OCC(N)=O [CBK266418]	105%
O=C1CSC2c3ccccc3C(=O)N2c2ccccc21 (centres unmarked) [CBK113670]	108%
CC(C)c1nc(CC(=O)N2CCOC(c3ccc(F)cc3)C2)cs1 (centres unmarked) [CBK305334]	93.9%
Cc1noc(NS(=O)(=O)c2ccc(NC(=O)C3COc4ccccc4O3)cc2)c1C (centres unmarked) [CBK264923]	90.1%
C=CCSc1nnc(CSc2nc3sc4c(c3c(=O)[nH]2)CCCC4)n1-c1ccccc1 [CBK263341]	94.4%
CCN(CCc1ccccn1)S(=O)(=O)c1ccc(OC(F)(F)F)cc1 [CBK044968]	92.4%
CNC(c1ccncc1)C(NC)c1ccncc1 (centres unmarked) [CBK015546]	95.9%
Cc1cc(C(=O)Nc2ccccc2C(=O)O)ccc1NC(=O)CC(C)C [CBK263616]	101%
COc1ccc(CN2CC(C(=O)O)C2)cc1Cn1cncn1 [CBK307284]	110%
CCNC(=O)c1ccc(-c2ccc(C(=O)N(C)C)cc2)nc1 [CBK158361]	91.7%
O=C1OC(c2ccco2)=N/C1=C/Nc1ccc(C(=O)O)cc1 [CBK265195]	104%
CCOc1ccccc1CCNS(=O)(=O)c1ccc(Cl)c(Cl)c1 [CBK043610]	95.5%
Cc1cc(CSc2cccs2)no1 [CBK002635]	91.8%
c1cc(CSc2nnc(-c3ccncc3)o2)ccn1 [CBK270235]	92.3%

Structure (SMILES)	viability at 28.5 h, 10 µM
O=C(CS(=O)(=O)Cc1ccccc1)Nc1ccc(S(=O)(=O)N2CCOCC2)cc1 [CBK266658]	88.8%
CCOc1ccc(-c2ccnc(NCC(C)(C)CO)n2)cc1C(=O)O [CBK307530]	88.6%
CN(C)CCN(C)c1ccc(-c2ccc(F)c(Cl)c2)cn1 [CBK036979]	96.8%
O=C(Cn1c(=O)n(Cc2cccs2)c2ncccc21)NC1CC1 [CBK283898]	90.6%
CC(=O)NCCOc1nc(N(C)C)nc(N2CCOCC2)n1 [CBK266651]	96.7%
O=C(O)c1ccc(N2CC(C(=O)Nc3ccc(F)cc3)CC2=O)cc1 (centres unmarked) [CBK286794]	85.3%
Cc1ccnc(NCC2CCN(Cc3cc(=O)n4ccccc4n3)C2)c1 (centres unmarked) [CBK306003]	97.3%
CC(=O)N1CCC2(C/C=C/C[C@H]3CN(CCCc4ccccc4)CC[C@H]3NC(=O)CNC2=O)CC1 [CBK292140]	90.9%
NS(=O)(=O)c1ccc(CCNc2ncnc3c2c(-c2ccccc2)cn3-c2ccc(F)cc2)cc1 [CBK266478]	92%
COC1C(O)C(CO)OC1n1cc(F)c(=O)[nH]c1=O (centres unmarked) [CBK201253]	91.4%
CCc1[nH]c(=O)c(C(=O)N2CCc3[nH]c4c(C)cccc4c3C2)cc1C [CBK281586]	97.6%
O=C(CC(CN1CCN(Cc2cccnc2)CC1)C(=O)O)Nc1ccc(Cl)cc1 (centres unmarked) [CBK286853]	91.5%
CCOC(=O)c1sc(-c2ccccc2)nc1C [CBK074204]	87.5%
CN1C(=O)C2(N=C(N)NC(Nc3ccc(F)cc3)=N2)c2ccccc21 (centres unmarked) [CBK270285]	94.8%
O=C1CC(C(=O)N2CCN(C(=O)c3ccco3)CC2)c2ccccc21 (centres unmarked) [CBK144464]	105%
O=C1CCCN1CCCNC(=O)N1CCN(Cc2ccccc2)CC1 [CBK155658]	104%
CSc1ccc(CN(CCO)CCO)cc1 [CBK261931]	98.6%
O=S(=O)(Nc1ccc(N2CCOCC2)cc1)c1cccc(OC(F)(F)F)c1 [CBK296759]	95.1%
CC(C)c1ccccc1OCC(=O)N1CCCc2c(cnn2C)C1 [CBK285287]	111%
O=C(NCc1cccc2ccccc12)N1CCN(Cc2ccccc2)CC1 [CBK155628]	92.2%
CN(C)CCN(C)c1nc(-c2ccc3c(c2)OCO3)cn2ccnc12 [CBK066381]	110%
Cc1ccc(-n2nnc3c(SCC(=O)Nc4ccc(F)cc4)ncnc32)cc1 [CBK287542]	112%

Same assay, conditions: human, hela cells, % viability, bulk resorufin, single well

Structure (SMILES)	viability at 28.5 h, 10 µM
O=C(O)CCn1cc(C=C2C(=O)NC(=S)NC2=O)c(-c2cc3ccccc3oc2=O)n1 [CBK265293]	91.8%
